Experimental data taken from ChEMBL document CHEMBL4334515, “Lignans from Saururus chinensis with Inhibitory Effects on Nitric Oxide Production” (J Nat Prod, 2019).

Legend:
[1] = tested on: RAW264.7; test: Cytotoxicity against mouse RAW264.7 cells assessed as effect on cell viability at 10 uM by CCK-8 assay; format: cell-based; conditions: raw264.7, 10 µM
[2] = tested on: RAW264.7; test: Inhibition of LPS-induced NO production in mouse RAW264.7 cells incubated for 24 hrs in presence of LPS by Griess reagent based assay; format: functional, cell-based; conditions: RAW264.7, 24 h

Row | Compound | IC50 [2] | Activity [1]
1 | C/C=C/c1ccc(O[C@@H](C)[C@@H](O)c2ccc(O)c(OC)c2)c(OC)c1 [MACHILIN D] | 21.1 µM | Non-Toxic
2 | COc1cc([C@@H]2OC(=O)O[C@H]2C)cc(OC)c1C | 40.1 µM | Non-Toxic
3 | COC/C=C/c1cc(OC)c(O[C@@H](C)[C@@H](O)c2cc(OC)c3c(c2)OCO3)c(OC)c1 | 35.5 µM | Non-Toxic
4 | C=CCc1cc(OC)c(O[C@H](C)[C@H](O)c2cc(OC)c(OC)c(OC)c2)c(OC)c1 | 46.1 µM | Non-Toxic
5 | N=C(N)NN [PIMAGEDINE] | 25.5 µM | –
6 | CC(C(=O)c1ccc2c(c1)OCO2)[C@H](C)Cc1ccc2c(c1)OCO2 (stereo not given in full) | > 50 µM | Non-Toxic
7 | C=CCc1cc(OC)c(OC)c(OC)c1 | > 50 µM | Non-Toxic
8 | C[C@H](Cc1ccc2c(c1)OCO2)[C@H](C)Cc1cc2c(cc1O)OCO2 (relative stereo) | 41.4 µM | Non-Toxic
9 | C[C@H](Cc1cc2c(cc1O)OCO2)[C@H](C)Cc1cc2c(cc1O)OCO2 | 42.4 µM | Non-Toxic
10 | C[C@@H]([C@H](C)[C@H](O)c1ccc2c(c1)OCO2)[C@H](O)c1ccc2c(c1)OCO2 [SAUCERNEOL I] | > 50 µM | Non-Toxic
11 | C[C@H]1[C@@H]2c3cc4c(cc3O[C@]35OCOC3=CC(=O)[C@@H](C[C@@H]1C)[C@@H]25)OCO4 | > 50 µM | Non-Toxic
12 | C=CCc1cc(OC)c(O[C@@H](C)[C@@H](OC(C)=O)c2cc(OC)c3c(c2)OCO3)c(OC)c1 | 23.7 µM | Non-Toxic
13 | CC(Cc1ccc2c(c1)OCO2)[C@H](C)Cc1ccc2c(c1)OCO2 (stereo not given in full) | 16.5 µM | Non-Toxic
14 | COC1=CC(=O)C2=C(C1=O)[C@@H](c1cc3c(cc1O)OCO3)[C@H](C)[C@@H](C)C2 | – | Toxic

The next lines start with results.

Row | IC50 [2] | Compound | Activity [1]
15 | 5.6 µM | C[C@H]1[C@@H]2c3cc4c(cc3O[C@]35OCOC3=CC(=O)[C@H](C[C@@H]1C)[C@H]25)OCO4 | Non-Toxic
16 | 20.3 µM | COc1cc(C[C@@H](C)[C@@H](C)Cc2ccc(O)c(OC)c2)ccc1O [MESODIHYDROGUAIARETIC ACID] | Non-Toxic
17 | 9.2 µM | C[C@H]1[C@@H]2c3cc4c(cc3O[C@]35OCOC3=CC(=O)[C@@H](C[C@@H]1C)[C@H]25)OCO4 | Non-Toxic
18 | 8.6 µM | COC/C=C/c1ccc(O[C@@H](C)C(=O)c2cc(OC)c(OC)c(OC)c2)c(OC)c1 | Non-Toxic
19 | 14 µM | C/C=C/c1cc(OC)c(O[C@@H](C)C(=O)c2cc(OC)c(OC)c(OC)c2)c(OC)c1 | Non-Toxic
20 | 10.4 µM | C=CCc1cc(OC)c(O[C@H](C)[C@H](OC(C)=O)c2cc(OC)c(OC)c(OC)c2)c(OC)c1 | Non-Toxic
21 | 16.9 µM | C/C=C/c1cc(OC)c(O[C@H](C)[C@H](OC(C)=O)c2cc(OC)c(OC)c(OC)c2)c(OC)c1 | Non-Toxic
